Patent publication EP0791056B1, “LIPID-CLEAVAGE ENZYME COMPLEX” (priority 1994, dated 1996)
Where “and” joins values, the source holds several entries; their conditions need not be identical. Equal entries are not always repeated. Where two headings read alike, the source gives them in different places.

Legend:
[1] = test system: LCE; assay: Substrate cleavage by LCE; format: biochemical; details: cleavage to drug monophosphate and DMDOP
Text: Das Enzym wird vorzugsweise aus humanen peripheren Blutleukozyten, die zuvor durch PHA oder andere Stimulantien (z.B. Cytokine, etc.) aktiviert wurden, oder aus murinen Nierenzellen isoliert. Aus vorläufigen Untersuchungen ergibt sich ein Molekulargewicht von etwa 120.000 - 160.000, bestimmt nach der SDS-PAGE-Methode. Zellen, die dieses Enzym enthalten, können auf einfache Weise dadurch identifiziert werden, indem sie unter geeigneten Testbedingungen mit einer Lösung von AZT-DMDOPE oder FLT-DMDOPE versetzt werden und die Spaltprodukte AZT-monophosphat bzw. FLT-monophosphat oder DMDOP nachgewiesen werden, beispielsweise durch dünnschichtchromatographische Methoden oder im Fall von radioaktiv markierten Proben durch szintillatographische Verfahren (siehe Beispiele 4 - 7). Im Gegensatz zu den biochemisch verwandten Phospholipasen C oder -D wird das LCE nicht durch bekannte Inhibitoren von Phospholipase C oder -D gehemmt oder durch Aktivatoren von Phospholipase C oder -D aktiviert. Im Gegensatz zu Phospholipase C wird das Enzym durch die Substanz D 609 (Tricyclodecan-9-yl-xanthogenat; C11H15OS2 K) aktiviert, während D 609 Phospholipase C inhibiert.

[2] = test system: LCE; assay: Influence of enzyme inhibitors or activators on LCE activity, kidney membrane fraction; format: biochemical, Balb/c
Protocol: Das Pipettierschema ist in der folgenden Tabelle angegeben. Tabelle
Zur Untersuchung der enzymatischen Spaltung in Abhängigkeit von der Substratkonzentration wurde eine Substratstammlösung von 0.98 nmol [^14C]-AZT-DMDOPE und 0.7 nmol AZT-DMDOPE/80 µl Aqua bidest. im LCE-Assay angesetzt. Die verschiedenen Substratkonzentrationen im LCE-Assay wurden durch kontinuierliche Verdopplung bzw. Halbierung des Volumens an Substratlösung eingestellt. Die Ansätze wurden in Glasröhrchen (5 ml) vorgelegt und durch Zugabe der Substratlösung gestartet. Die Inkubation wurde bei 37 °C im Wasserbad unter leichtem Schütteln durchgeführt.
Die Reaktionsansätze des LCE-Assays wurden nach entsprechender Inkubationszeit dem Wasserbad entnommen, und die Reaktion durch Zugabe von 750 µl 2-Propanol gestoppt. Nach gründlicher Durchmischung wurden die Ansätze anschließend mit 700 µl auf Raumtemperatur erwärmtem n-Heptan versetzt. Die Ansätze wurden erneut für 30 sec gut gemischt und zur Beschleunigung der Phasentrennung in der Minifuge T bei 3200 rpm für 15 min bei Raumtemperatur zentrifugiert. Anschließend wurden 500 µl der oberen Phase (n-Heptan) entnommen und in neue Glasröhrchen (5 ml) mit 10 mg Kieselgel 60 H und 200 µl n-Heptan überführt. Die Ansätze wurden für 30 sec gut durchmischt und zur Sedimentation des Kieselgels für 10 min unter oben genannten Bedingungen zentrifugiert. Vom Überstand wurden anschließend 500 µl entnommen und mit 3 ml Szintillationsflüssigkeit versetzt. Die Messung der Radioaktivität erfolgte für 4 min im Flüssigkeits-Szintillations-Analysator. Zur Bestimmung des Absolutwertes an Radioaktivität wurden 200 µl der Substratlösung mit 3 ml Szintillationsflüssigkeit versetzt und unter gleichen Bedingungen im Flüssigkeits-Szintillations-Analysator gemessen.

[3] = test system: stimulierten humanen PBL; assay: Intracellular concentrations of AZT and AZT nucleotides (radioimmunoassay) in stimulated human PBL; details: for Konzentrationen an AZT und AZT-Nukleotiden nach Abfall bei zunehmender Inkubationszeit: up to 24 h
Text: Zur Bestimmung der intrazellulären Konzentrationen an AZT und/oder AZT-Nukleotiden nach Inkubation mit AZT-DMDOPE bzw. AZT wurden humane PBL aus "Buffy coat" isoliert.
Hierfür wurde "Buffy-coat" von gesunden Spendern gemischt und durch Zentrifugation in einem isotonischen Medium mit einer Dichte von 1.077 g/ml fraktioniert. Da mononukleare Blutzellen (Monozyten und Lymphozyten) eine geringere Dichte als Erythrozyten und polymorphkernige Granulozyten haben, bilden sie einen Ring an der Grenze zwischen Trennmedium und Probe und können mit Hilfe einer Pipette abgenommen werden. Erythrozyten und polymorphkernige Granulozyten sedimentieren aufgrund ihrer höheren Dichte durch das Medium und lassen sich somit von PBL separieren. Zur Stimulation der Zellproliferation wurde Phytohämaglutinin A (Mukoprotein) (PHA-M), der mitogene Lektinextrakt aus der roten Feuerbohne (Phaseolus vulgaris), eingesetzt. Phytohämagglutinin ist eine Familie von 5 Isolektinen, die als Tetramere vorliegen. Die Untereinheiten bestehen aus einem lymphozytenreaktiven Typ-L und einem erythrozytenreaktiven Typ-E. Typ-L hat eine hohe Affinität zu Lymphozytenoberflächenrezeptoren und ist somit verantwortlich für die mitogenen Eigenschaften. Die Stimulation der Lymphozyten wurde in KPMI 1640 Komplettmedium III für 72 h bei 37 °C und 5 % CO2 durchgeführt. Nach Beendigung der Stimulation wurden zur Erhöhung der Zellzahl die Zellen für weitere 24 h in RPMI 1640 Komplettmedium IV kultiviert.
Zur Bestimmung der intrazellulären Konzentrationen an AZT und AZT-Nukleotiden wurden die Zellen in RPMI 1640 Komplettmedium II mit einer Dichte von 1 x 10^6 Zellen/ml in Gewebekulturflaschen (50 ml/25 cm^2) überführt, und in Anwesenheit von 0.03 bzw. 0.3 µg AZT/ml (Charge 15) und 1 bzw. 10 µg AZT-DMDOPE/ml für 1 - 24 h inkubiert.
Die Kulturen wurden anschließend für 1, 3, 6 und 24 h bei 37 °C und 5 % CO2 inkubiert. AZT und seine Nukleotide wurden anschließend mit 60 % Methanol extrahiert. Die extrahierten Nukleotide wurden mit alkalischer Phosphatase quantitativ zu AZT dephosphoryliert, da nur AZT, nicht jedoch die entsprechenden Nukleotide mit Hilfe eines Radioimmuno-Assays detektiert werden kann.
Die Konzentrationen an intrazellulärem AZT, die mit Hilfe des Radioimmuno-Assays bestimmt wurden, setzten sich dementsprechend aus der des AZT und den der AZT-Nukleotide zusammen. Eine separate Quantifizierung der Konzentrationen an AZT-MP, AZT-DP und AZT-TP wurde nicht durchgeführt.
Diese Experimente wurden an stimulierten humanen PBL durchgeführt.
Hierfür wurden Zellsuspensionen mit einer Dichte von 10^6 Zellen/ml mit 1 bzw. 10 µg AZT-DMDOPE/ml für 6 bzw. 24 h bei 37 °C und 5 % CO2 inkubiert.
Zur quantitativen Bestimmung von AZT wurde ein kommerzieller ^125J-AZT RIA Test-Kit verwendet. Puffer und Lösungen wurden gemäß den Angaben des Herstellers angesetzt und im Test-Kit eingesetzt. Die Reaktionsansätze wurden nach untenstehendem Schema (Tab. ) pipettiert, vorsichtig gemischt und für 2 h bei Raumtemperatur inkubiert. Anschließend wurden zur Präzipitation des Komplexes aus ^125J-AZT und des AZT-Antikörpers (aus Kaninchen) 500 µl des Ziege-Anti-Kaninchen-Antikörpers hinzugefügt. Die Ansätze wurden gemischt und erneut bei Raumtemperatur für 30 min inkubiert.

[4] = test system: nichtstimulierten humanen PBL; assay: Intracellular concentrations of AZT and AZT nucleotides (radioimmunoassay) in non-stimulated human PBL; format: in vitro ADME
Text: AZT wurden humane PBL aus "Buffy coat" isoliert.

[5] = test system: P3X63Ag8.653-Zellen; assay: Intracellular concentrations of AZT and AZT nucleotides (radioimmunoassay) in thymidine kinase deficient cells; format: in vitro ADME; details: after 48 h
Text: Die Bestimmung der intrazellulären Konzentrationen an AZT und AZT-Nukleotiden in Thymidikinasedefizienten Zellen sollte weitere Erkenntnisse über die intrazelluläre Spaltung der Testsubstanz AZT-DMDOPE liefern. Intrazelluläres AZT kann in diesen Zellen aufgrund eines Mangels an Thymidin-Kinase (TK) nicht in ATZ-MP und somit in das therapeutisch wirksame AZT-TP überführt werden. Die Bestimmung der intrazellulären Konzentrationen an AZT und AZT-Nukleotiden nach Inkubation mit AZT-DMDOPE könnte somit einen weiteren Hinweis auf die Spaltung der Teststubstanz geben.
Hierfür wurden in Gewebekulturschalen (60 x 15 mm) 1 x 10^7 Zellen in RPMI 1640 Komplettmedium I mit 0.03 bzw. 0.3 µg AZT/ml und 1 bzw. 10 µg AZT-DMDOPE/ml über 6, 24 und 48 h inkubiert. Nach Extraktion von AZT und der AZT-Nukleotide und einer Behandlung mit alkalischer Phosphatase wurde die Konzentration an AZT mit Hilfe des Radioimmuno-Assays bestimmt.

[6] = test system: stimulierten humanen PBL; assay: Intracellular decay kinetics of AZT and AZT nucleotides after removal of the incubation solution; format: in vitro ADME, human; details: 24 h preincubation with 0.3 µg AZT/ml, reached 6 h after removal
Protocol: Stimulierte humane PBL wurden für 24 h mit 0.3 µg AZT/ml bzw. 10 µg AZT-DMDOPE/ml inkubiert. Anschließend wurden 1 x 10^7 Zellen in Gewebekulturflaschen (50 ml/25 cm^2) mit RPMI 1640 Komplettmedium I überführt. Nach 1, 3, 6, 24 und 48 h wurde AZT und die AZT-Nukleotide aus der zellulären Matrix extrahiert. Nach einer Behandlung mit alkalischer Phosphatase wurde mit Hilfe des Radioimmuno-Assays die Konzentration an AZT bestimmt.

[7] = target: virale reverse Transkriptase (RT) (Human immunodeficiency virus type 1 group M subtype B, UniProt P04585); details: intracellular AZT in non-phosphorylated form; cited from earlier work
[8] = test system: stimulierten PBL; details: stimulierte PBL, Arner et al., 1992; cited from earlier work
[9] = test system: LCE; assay: LCE assay: dependence of AZT-DMDOPE cleavage on EGTA and divalent metal cations; format: biochemical, human; details: for DMDOP / Spezifische Aktivität / Inhibition: Effektor 2 mM, 2 h 37 °C, n = 3; for DMDOP / Spezifische Aktivität: Membranfraktionen stimulierter humaner PBL 0.068 mg/Ansatz; for Inhibition: relative to EGTA, Membranfraktionen stimulierter humaner PBL; for Inhibierung der LCE-Aktivität (in words): divalent metal cations, 2 mM in Example 9
Protocol: Die Abhängigkeit der enzymatischen Spaitung von AZT-DMDOPE durch das LCE von zweiwertigen Metallkationen wurde mit Membranfraktionen stimulierter humaner PBL als Enzymquelle untersucht.
Die zweiwertigen Metallkationen wurden in einer Konzentration von 2 mM im LCE-Assay eingesetzt. Die Proteinkonzentration wurde mit 0.068 mg/Ansatz festgelegt.
Parallel wurde ein Ansatz mit EGTA mitgeführt. EGTA ist ein spezifischer Komplexbildner für Ca^2+ das essentiell für die Aktivität der Phospholipase C ist. Nach einer Inkubationszeit von 2 h bei 37 °C wurde der Umsatz der Muttersubstanz gemessen und die spezifische Aktivität des LCE bestimmt (folgende Tabelle).

[10] = LCE Membranfraktion Niere (Balb/c)

## CCCCCCCCCCCCSCC(COP(=O)(O)OC[C@H]1O[C@@H](n2cc(F)c(=O)[nH]c2=O)[C@H](O)[C@@H]1O)OCCCCCCCCCC (stereo partly shown) [5-FU-DMDOPE, (5-Fluoruridin)-5'-phosphorsäure-(3-dodecylmercapto-2-decyloxy)-propylester]
[1]
  Spaltung durch LCE: gespalten

## O=[N+]([O-])c1cccc2cn[nH]c12 [7-Nitroindazol]
[2]; [10]
  Einfluß auf LCE-Aktivität: keine

## Cc1cn([C@H]2C[C@H](N=[N+]=[N-])[C@@H](CO)O2)c(=O)[nH]c1=O [AZT, 3'-Desoxy-3'-azidothymidin, reference compound]
[3]; incubation with 0.03 µg AZT/ml, reached after 6 h
  maximale Konzentrationen an AZT und AZT-Nukleotiden: 2.90 ng/10^6 Zellen
[3]; incubation with 0.03 µg AZT/ml
  Konzentrationen an AZT und AZT-Nukleotiden nach Abfall bei zunehmender Inkubationszeit: 2.32 ng/10^6 Zellen
[3]; incubation with 0.3 µg AZT/ml, reached after 3 h
  maximale Konzentrationen an AZT und AZT-Nukleotiden: 30.97 ng/10^6 Zellen
[3]; incubation with 0.3 µg AZT/ml
  Konzentrationen an AZT und AZT-Nukleotiden nach Abfall bei zunehmender Inkubationszeit: 19.88 ng/10^6 Zellen
[4]; 0.03 µg AZT/ml
  intrazelluläre Konzentrationen an AZT und AZT-Nukleotiden: 0.10 ng/10^6 Zellen
[4]; 0.3 µg AZT/ml
  intrazelluläre Konzentrationen an AZT und AZT-Nukleotiden: 0.47 ng/10^6 Zellen
[5]; 0.03 µg AZT/ml
  maximale intrazelluläre Konzentrationen an AZT und AZT-Nukleotiden: 0.03 ng/10^6 Zellen
[5]; 0.3 µg AZT/ml
  maximale intrazelluläre Konzentrationen an AZT und AZT-Nukleotiden: 0.31 ng/10^6 Zellen
[6]
  konstanter Wert der intrazellulären Konzentrationen an AZT und AZT-Nukleotiden: 0.40 ng/10^6 Zellen
[7]
  inhibitorische Wirkung auf die virale reverse Transkriptase (RT): keine inhibitorische Wirkung

## Cc1cn([C@H]2C[C@H](N=[N+]=[N-])[C@@H](COP(=O)(O)O)O2)c(=O)[nH]c1=O [AZT-MP, 3'-Desoxy-3'-azidothymidin-monophosphat]
[8]
  im Vergleich zu AZT-DP und AZT-TP um Faktor höhere Konzentration an AZT-MP: 40

## CC(=O)Oc1ccccc1C(=O)O [Acetylsalicylsäur e]
[2]; [10]
  Einfluß auf LCE-Aktivität: keine

## O=C(O)CN(CCOCCOCCN(CC(=O)O)CC(=O)O)CC(=O)O [EGTA]
[9]
  DMDOP: 84.96 ± 11.18 pmol
  Spezifische Aktivität: 10.41 ± 1.37 pmol/mg/min
  Inhibition: ≡ 0%

## CCCCCCCCCCCCSCC(COP(=O)(O)OC[C@H]1O[C@@H](n2cc(C)c(=O)[nH]c2=O)C[C@@H]1F)OCCCCCCCCCC (stereo partly shown) [FLT-DMDOPE, (3'-Desoxy-3'-fluorthymidin)-5'-phosphorsäure-(3-dodecylmercapto-2-decyloxy)-propylester]
[1]
  Spaltung durch LCE: gespalten

## Nc1nc2c(ncn2C2OC(COP(=O)(O)OP(O)(=S)OP(=O)(O)O)C(O)C2O)c(=O)[nH]1 (stereo not drawn) [GTP-β-S]
[2]; [10]
  Einfluß auf LCE-Aktivität: keine

## [Cl][Mn][Cl] [MnCl2]
[9]
  DMDOP: 4.75 ± 0.63 pmol
  Spezifische Aktivität: 0.58 ± 0.08 pmol/mg/min
  Inhibition: 94%
  Inhibierung der LCE-Aktivität (in words): totalen Hemmung
[9]; listed as Mn^2+
  Inhibierung der LCE-Aktivität (in words): Inhibierung

## O=C(NCCCCCCNC(=O)ON=C1CCCCC1)ON=C1CCCCC1 [RHC-80267]
[2]; [10]
  Einfluß auf LCE-Aktivität: keine

## Nc1ncnc2c1ncn2C1CCCO1 (stereo not shown) [SQ 22536]
[2]; [10]
  Einfluß auf LCE-Aktivität: keine

## COC[C@H]1OC(=O)c2coc3c2[C@@]1(C)C1=C(C3=O)[C@@H]2CCC(=O)[C@@]2(C)C[C@H]1OC(C)=O [Wortmannin]
[2]
  Einfluß auf LCE-Aktivität: keine

## CaCl2
[9]
  DMDOP: 50.50 ± 2.13 pmol
  Spezifische Aktivität: 6.19 ± 0.26 pmol/mg/min
  Inhibition: 41.0 ± 0.25% and 41.0 ± 2.5%
  Inhibierung der LCE-Aktivität (in words): Inhibierung

## MgCl2
[9]
  DMDOP: 84.36 ± 17.02 pmol
  Spezifische Aktivität: 10.34 ± 2.08 pmol/mg/min
  Inhibition: 0%
  Inhibierung der LCE-Aktivität (in words): keine Inhibierung

## Neomycin
[2]; [10]
  Einfluß auf LCE-Aktivität: keine

## ZnCl2
[9]
  Spezifische Aktivität: 0 pmol/mg/min
  Inhibition: 100.0%
  Inhibierung der LCE-Aktivität (in words): totalen Hemmung
[9]; listed as Zn^2+
  Inhibierung der LCE-Aktivität (in words): Inhibierung
